Source: patent US12180228B2 (priority 2019, dated 2024)

Legend:
[1] = tested on: five human cancer cell lines (HeLa, A549, MCF7, HCT116, DU-145); conditions: for cytotoxic activity relative to parent ETP (in words): same five cell lines
Procedure: Cells were grown in media supplemented with fetal bovine serum (FBS) and antibiotics (100 μg/mL penicillin and 100 U/mL streptomycin). Specifically, experiments were performed using the following cell lines and media compositions: HeLa (cervical adenocarcimona) and A549 (lung carcinoma) were grown in RPMI-1640+10% FBS; HCT-116 (colorectal carcinoma) was grown in DMEM+10% FBS; DU-145 (prostate carcinoma) and MCF7 (breast adenocarcinoma) were grown in EMEM+10% FBS. Cells were incubated at 37° C. in a 5% CO2, 95% humidity atmosphere.
(§1) Cells were plated at 250 cells/well into duplicate assay plates in 50 μL media into 384-well white, opaque, tissue-culture treated plates and allowed to adhere overnight at 37° C./5% CO2. Compounds were solubilized in DMSO as 1000× stocks and […] was pin-transferred to cells (V&P pin tool mounted on Tecan Freedom Evo MCA96). Compounds were tested in 10-pt, 2-fold dilution with concentrations tested between 1 nM-20 μM for most compounds, except where indicated. DMSO (32 wells of 384-wells) was used as vehicle control. After 72 hours of incubation at 37° C./5% CO2, 10 μL Cell Titer-Glo (Promega) was added to each well and plates were incubated at room temperature for 10 minutes before the luminescence was read on a Tecan M1000 plate reader. Cell Titer-Glo measures ATP levels of cells as a surrogate for cell viability. All compound-treated wells was normalized to the DMSO control averages and expressed as a % of DMSO viability. IC50 values were determined from the dose curves using Spotfire (Perkin Elmer).
To evaluate the model and functionalized ETP probes as anticancer agents, fifteen derivatives were tested in culture against a panel of five human cancer cell lines (Table 1).

[2] = tested on: HeLa (cervical carcinoma); conditions: for IC50: read-out: Cytotoxicity IC50, HeLa, 72 h of compound treatment, Cell Titer-Glo (ATP levels), error is standard deviation of the mean, n ≥ 2
Procedure: (§2) Cells were grown in media supplemented with fetal bovine serum (FBS) and antibiotics (100 μg/mL penicillin and 100 U/mL streptomycin).
as §1

[3] = tested on: MCF7 (breast adenocarcinoma); conditions: read-out: Cytotoxicity IC50, MCF7; 72 h of compound treatment, Cell Titer-Glo (ATP levels); error is standard deviation of the mean, n ≥ 2
Procedure: as §2, §1

[4] = tested on: A549 (alveolar adenocarcinoma); conditions: for IC50: read-out: Cytotoxicity IC50, A549, 72 h of compound treatment, Cell Titer-Glo (ATP levels), error is standard deviation of the mean, n ≥ 2
Procedure: as §2, §1

[5] = tested on: DU-145 (prostate carcinoma); conditions: for IC50: read-out: Cytotoxicity IC50, DU-145, 72 h of compound treatment, Cell Titer-Glo (ATP levels), error is standard deviation of the mean, n ≥ 2
Procedure: as §2, §1

[6] = tested on: HCT116 (colorectal carcinoma); conditions: read-out: Cytotoxicity IC50, HCT116; 72 h of compound treatment, Cell Titer-Glo (ATP levels); error is standard deviation of the mean, n ≥ 2
Procedure: as §2, §1

[7] = Chemical stability of epidisulfides, in situ 1H NMR monitoring; format: physicochemical; conditions: triethylamine, 16 hours in deuteroacetonitrile
Procedure: In the absence of base, 98% of epidisulfide (+)-8 remained after 20 hours in deuterochloroform.
Monitoring in situ by ^1H NMR spectroscopy, 99% remaining starting material in the presence of triethylamine after 16 hours in deuteroacetonitrile was observed.

[8] = tested on: K-562 cell lines (chronic myelogenous leukemia (CML)); assay: cells; format: cell-based; conditions: Homo sapiens, K562; 72 hours, CellTiter-Glo
Procedure: (§3) Cells were grown in RPMI-1640+10% FBS+Pen/Strep and all are suspension cell lines. Each were plated at 250 cells per well in 50 μL of media in a 384 well plate and 50 nL of compounds was added via pin-tool (same as our usual procedure). Compounds were tested at 20 μM starting assay concentration in 20-pt, 2-fold dose in duplicate on the same assay plate. Cells were incubated with compound for 72 hours and viability was read out with CellTiter-Glo.

[9] = tested on: Jurkat cell lines (acute T cell leukemia); assay: cells; format: cell-based; conditions: Homo sapiens, 72 hours, CellTiter-Glo
Procedure: as §3

[10] = tested on: Toledo cell lines (diffuse large cell lymphoma; non-Hodgkin's B cell lymphoma); assay: cells; format: cell-based; conditions: Homo sapiens, 72 hours, CellTiter-Glo
Procedure: as §3

[11] = D2O and CD3CN, addition of glutathione; minutes with base or days without
Procedure: The first study involved thiol-disulfide exchange of ETPs in organic solvents using a surrogate thiol, and then transitioned to more biologically informative aqueous conditions involving glutathione (Scheme 9).
To investigate this, aliquots of the reaction were diluted starting with epidisulfide (+)-42 (“from ETP”) in CDCl3 to analyze the composition versus an internal standard over a period of 100 h.

SMILES	cytotoxic activity relative to parent ETP (in words) [1]	IC50 [2] [nM]	IC50 [3] [nM]	IC50 [4] [nM]	IC50 [5] [nM]	IC50 [6] [nM]	further results
COc1ccc([C@]23C[C@]4(SSCc5ccc(F)cc5)C(=O)N(C)[C@@](C)(SSCc5ccc(F)cc5)C(=O)N4[C@H]2N(S(=O)(=O)c2ccccc2)c2ccccc23)cc1 [(+)-45b]	approximately the same activities						
COc1ccc([C@]23C[C@]4(SSCc5ccc(F)cc5)C(=O)N(C)[C@@H](SSCc5ccc(F)cc5)C(=O)N4[C@H]2N(S(=O)(=O)c2ccccc2)c2ccccc23)cc1 [(−)-45a]	approximately the same activities						
COc1ccc([C@]23C[C@@]45SS[C@@](C)(C(=O)N4[C@H]2N(S(=O)(=O)c2ccccc2)c2ccccc23)N(C)C5=O)cc1 [(+)-42, Epidithiodiketopiperazine]		32 ± 37	81 ± 64	92 ± 87	36 ± 43	374 ± 83	IC50 ([1]; read-out: activity (IC50 range) against the five cell lines, range over HeLa, A549, MCF7, HCT116, DU-145): 32 to 374 nM; remaining starting material [7]: 99%
CN1C(=O)[C@@]23C[C@]4(c5ccc(OCCCN=[N+]=[N-])cc5)c5ccccc5N(S(=O)(=O)c5ccccc5)[C@@H]4N2C(=O)[C@]1(C)SS3 [(+)-9d, Epidithiodiketopiperazine Azide]							fold decrease in activity compared to model ETP (+)-42, HeLa [2]: 4.3 fold; fold decrease in activity compared to model ETP (+)-42, A549 [4]: 2.7 fold; fold decrease in activity compared to model ETP (+)-42, DU-145 [5]: 8.6 fold; IC50 [8]: 1280 nM; IC50 [9]: 419 nM; IC50 [10]: 1810 nM
COc1ccc([C@]23C[C@]4(SSC[C@H](NC(=O)CC[C@H](N)C(=O)O)C(=O)NCC(=O)O)C(=O)N(C)[C@@](C)(SSC[C@H](NC(=O)CC[C@H](N)C(=O)O)C(=O)NCC(=O)O)C(=O)N4[C@H]2N(S(=O)(=O)c2ccccc2)c2ccccc23)cc1 [Compound 46, Bis(L-glutathione)disulfide]	significantly less active	508 ± 75	500 ± 152	910 ± 324	580 ± 216	1100 ± 540	reversion of bisdisulfide to ETP (+)-42 (in words) [11]: quantitative reversion
